Source: publication PMC9457810, “Synthesis, Structure and Antileishmanial Evaluation of Endoperoxide–Pyrazole Hybrids” (Molecules, 2022)
Structures can show the parent of a compound that is named as a salt. Where two headings read alike, the source gives them in different places.

Key:
L. tropica promastigotes [1] = test: Leishmania promastigotes in vitro susceptibility (MTT), L. tropica; assay type: cell-based; conditions: 48 h, at least three independent assays; for IC50: read-out: Promastigotes Susceptibility IC50 ± SEM, L. tropica
[2] = system: L. infantum promastigotes; test: Leishmania promastigotes in vitro susceptibility (MTT), L. infantum; assay type: cell-based; conditions: 48 h, at least three independent assays; for IC50: read-out: Promastigotes Susceptibility IC50 ± SEM, L. infantum
[3] = In vitro cytotoxicity assessment in THP-1 cell line (MTT); assay type: cell-based, human; conditions: human, THP-1 cells, 48 h, MTT; at least three independent assays; read-out: Cytotoxicity CC50 ± SEM
Protocol: (§1) THP-1 (ATCC® TIB-202TM) human acute monocytic leukemic cell line was obtained from DSMZ, Germany and cultured in RPMI 1640 (Sigma, Darmstadt, Germany) supplemented with 10% (v/v) FBS, 1% (v/v) penicillin-streptomycin (Sigma), and L-glutamine 200 mM (Sigma) at 37 °C, 5% CO2.
(§2) THP-1 cell line was used to calculate the endoperoxide–pyrazole hybrids’ half-maximal cytotoxic concentration (CC50). THP-1 was plated at a final density of 5 × 10^5 cells/mL, in 96-well flat bottom culture plates (VWR), using six different concentrations of the compounds (OZ1, OZ2, T1, T2 and PIR: 800, 400, 200, 100, 50, 25 µM) and amphotericin B (10, 5, 2.5, 1.25, 0.625, 0.313 µM). A blank (RPMI medium alone) and an untreated control (parasites with RPMI medium plus 1% DMSO as vehicle solution) were also included. All the compounds were plated out in quadruplicate and incubated for 48 h at 37 °C ± 1 °C, 5% CO2.
(§3) Following the incubation period, 20 µL per well of MTT was added as described in Section 3.5.2. After absorbance readings, the CC50 values of each compound were determined with GraphPad Prism V 9.0 (Dotmatics, San Diego, CA, USA) as previously described. At least three independent assays were performed.

[4] = system: intracellular amastigotes of L. infantum; test: Intracellular amastigotes susceptibility in THP-1-derived macrophages (infection index); assay type: cell-based, Leishmania infantum; conditions: for IC50: 72 h, THP-1-derived macrophages, infection index, two independent assays, read-out: Intracellular Amastigote Susceptibility IC50 ± SEM, L. infantum; for SI (selectivity index): SI for amastigote forms = CC50 THP-1 / IC50 L. infantum
Protocol: The in vitro intracellular amastigote assay was performed using a THP1 cell line maintained in complete RPMI at 37 °C, 5% CO2. After 24 h differentiation of 5 × 10^5 cells/mL into macrophages in sterile 16-chamber LabTek slides (Thermo Scientific, Waltham, MA, USA) with 25 ng mL^−1 phorbol myristic acid (PMA, Sigma), cells were washed once with warm RPMI to remove non-differentiated and non-adherent cells and further infected with 5 × 10^6 promastigotes/mL in a 10:1 parasite–macrophage ratio for another 24 h. After this period, slides were gently washed once with warm RPMI to remove non-internalised promastigotes. The compounds 2o, 2t, OZ1•HCl, OZ1•MsOH, and OZ1•TsOH at concentrations ranging 400 µM to 50 µM were added, and the slides were further incubated at 37 °C, 5% CO2 for 72 h. After this period, cells were washed with warm PBS, fixed with methanol (Sigma) and stained with Giemsa 5% (Sigma). AmB was used as positive control, and macrophages cultivated in RPMI medium and DMSO (0.5% v/v) were used as negative control. The infection index was determined by multiplying the percentage of infected cells and the number of amastigotes per infected cell as previously described. The results represent the average of two experiments. The IC50 for each compound was calculated by fitting the data as a non-linear regression with variable slope using a dose–response inhibitory model in the GraphPad Prism V 8.0 (Dotmatics, San Diego, CA, USA) program.
Selectivity index (SI) was determined for each compound as the quotient between the cytotoxicity in cell lines (CC50) and the inhibitory concentration (IC50) (SI = CC50 in mammalian cells/IC50 L. infantum).

L. tropica promastigotes [5] = test: Morphometric analysis of L. tropica promastigotes (optical microscopy, Giemsa); assay type: cell-based, Leishmania tropica; conditions: 48 h, OZ1 300 µM, OZ2 200 µM; for Body size of L. tropica promastigotes: amphotericin B 0.62 µM; for Morphological alterations of L. tropica promastigotes: Giemsa, 1000×
Protocol: To detect morphological alterations, at the end of the incubation period (48 h), 30 µL of the parasite’s suspension were collected from different treatment concentrations of each compound to prepare smears on glass slides, fixed with methanol, and stained with 5% (v/v) Giemsa (Sigma). Stained slides were examined with bright field in an inverted microscope (Eclipse 80i Nikon, Tokyo, Japan) with 1000× amplification, and images were captured with a Nikon DS-Ri1 camera. Image J (version 1.53k) was used to measure promastigote body and flagellum size of at least 30 parasite samples.
Data were expressed as mean ± standard error of the mean (SEM), and statistical analysis was performed with one-way ANOVA (Bonferoni’s multiple comparisons test) to determine whether differences between means relatively to untreated control were significant at different levels (p < 0.05, p < 0.01, p < 0.001).

THP-1 cell line = test: In vitro cytotoxicity assessment in THP-1 cell line (MTT); assay type: cell-based, human; conditions: for selectivity (SI values): THP-1 cytotoxicity versus antileishmanial activity of free hybrids (promastigotes); for CC50: THP-1 cells, 48 h, MTT, at least three independent assays, read-out: Cytotoxicity CC50 ± SEM
Protocol: as §1, §2, §3

[6] = Leishmania infantum, Macrophage

| SMILES | IC50 (L. tropica promastigotes [1]; Leishmania tropica) [µM] | IC50 ([2]; Leishmania infantum) [µM] | IC50 [2] [µM] | IC50 (L. tropica promastigotes [1]) [µM] | CC50 at 48 h [3] [µM] | SI (selectivity index) [4] | CC50 (THP-1 cell line) [µM] | further results |
| --- | --- | --- | --- | --- | --- | --- | --- | --- |
| C[C@@H]1[C@H](O)[C@@H](C)/C=C/C=C/C=C/C=C/C=C/C=C/C=C/[C@H](O[C@@H]2O[C@H](C)[C@@H](O)[C@H](N)[C@@H]2O)C[C@@H]2O[C@](O)(C[C@@H](O)C[C@@H](O)[C@H](O)CC[C@@H](O)C[C@@H](O)CC(=O)O[C@H]1C)C[C@H](O)[C@H]2C(=O)O [AmB, Amphotericin B, reference compound] | 0.3 ± 0.1 | 0.2 ± 0.01 | – | – | 23 ± 3 | 290 | – | IC50 [4, 6]: 0.08 ± 0.05 µM; Body size of L. tropica promastigotes (L. tropica promastigotes [5]): 6.463 ± 1.874 µm |
| Cl.Nc1ccnn1C(=O)C1CCC2(CC1)OOC1(O2)C2CC3CC(C2)CC1C3 (stereo not drawn) [OZ1•HCl, (5-Amino-1H-pyrazol-1-yl) (dispiro[cyclohexane-1,3′-[1,2,4]trioxolane-5′,2″-tricyclo-[3.3.1.1^3,7]-decan]-4-yl) methanone hydrochloride] | – | – | 164 ± 20 | 135 ± 36 | – | 5.9 | 509 ± 155 | IC50 [4]: 87 ± 39 µM |
| CS(=O)(=O)O.Nc1ccnn1C(=O)C1CCC2(CC1)OOC1(O2)C2CC3CC(C2)CC1C3 (stereo not drawn) [OZ1•MsOH, (5-Amino-1H-pyrazol-1-yl) (dispiro[cyclohexane-1,3′-[1,2,4]trioxolane-5′,2″-tricyclo-[3.3.1.1^3,7]-decan]-4-yl) methanone mesylate] | – | – | 183 ± 48 | 198 ± 24 | – | <0.8 | 336 ± 196 | IC50 [4]: > 400 µM |
| Nc1ccnn1C(=O)C1CCC2(CC1)OOC1(O2)C2CC3CC(C2)CC1C3 (stereo not drawn) [OZ1•TsOH, (5-Amino-1H-pyrazol-1-yl)(dispiro[cyclohexane-1,3′-[1,2,4]trioxolane-5′,2″-tricyclo-[3.3.1.1^3,7]-decan]-4-yl)methanone p-tosylate] | – | – | 181 ± 35 | 199 ± 9 | – | 2.1 | 510 ± 109 | IC50 [4]: 246 ± 32 µM |
| Nc1ccn(C(=O)C2CCC3(CC2)OOC2(O3)C3CC4CC(C3)CC2C4)n1 (stereo not drawn) [OZ2•HCl, (3-Amino-1H-pyrazol-1-yl) (dispiro[cyclohexane-1,3′-[1,2,4]trioxolane-5′,2″-tricyclo-[3.3.1.1^3,7]decan]-4-yl) methanone hydrochloride] | – | – | 258 ± 91 | > 400 | – | – | 425 ± 104 | – |
| Nc1ccn(C(=O)C2CCC3(CC2)OOC2(O3)C3CC4CC(C3)CC2C4)n1 (stereo not drawn) [OZ2•TsOH, (3-Amino-1H-pyrazol-1-yl) (dispiro[cyclohexane-1,3′-[1,2,4]trioxolane-5′,2″-tricyclo-[3.3.1.1^3,7]decan]-4-yl) methanone p-tosylate] | – | – | 217 ± 47 | 260 ± 82 | – | – | 479 ± 83 | – |
| Nc1cc[nH]n1 [PIR, 3-aminopyrazole, reference compound] | > 400 | > 400 | – | – | 202 ± 10 | – | – | Promastigotes Susceptibility IC50 ± SEM, L. tropica (L. tropica promastigotes [1]): devoid of antileishmanial activity; Promastigotes Susceptibility IC50 ± SEM, L. infantum [2]: devoid of antileishmanial activity |
| Nc1ccn(C(=O)C2CCC3(CC2)OOC2(OO3)C3CC4CC(C3)CC2C4)n1 (stereo not drawn) [T1•HCl, (3-Amino-1H-pyrazol-1-yl) (dispiro[cyclohexane-1,3′-[1,2,4,5]tetraoxane-6′,2″-tricyclo [3.3.1.1^3,7]decan]-4-yl) methanone hydrochloride] | > 400 | > 400 | – | – | – | – | 529 ± 108 | – |
| Nc1ccnn1C(=O)C1CCC2(CC1)OOC1(OO2)C2CC3CC(C2)CC1C3 (stereo not drawn) [T1•TsOH, (5-Amino-1H-pyrazol-1-yl) (dispiro[cyclohexane-1,3′-[1,2,4,5]tetraoxane-6′,2″-tricyclo-[3.3.1.1^3,7]-decan]-4-yl) methanone p-tosylate] | – | – | > 400 | > 400 | – | – | 331 ± 126 | – |
| Nc1ccn(C(=O)C2CCC3(CC2)OOC2(OO3)C3CC4CC(C3)CC2C4)n1 (stereo not drawn) [T2•HCl, (3-Amino-1H-pyrazol-1-yl) (dispiro[cyclohexane-1,3′-[1,2,4,5]tetraoxane-6′,2″-tricyclo [3.3.1.1^3,7]decan]-4-yl) methanone hydrochloride] | – | – | 313 ± 40 | 266 ± 8 | – | – | 444 ± 22 | – |

The next lines start with results.

| IC50 (L. tropica promastigotes [1]; Leishmania tropica) [µM] | IC50 ([2]; Leishmania infantum) [µM] | IC50 [2] [µM] | IC50 (L. tropica promastigotes [1]) [µM] | SMILES | CC50 at 48 h [3] [µM] | SI (selectivity index) [4] | CC50 (THP-1 cell line) [µM] | further results |
| --- | --- | --- | --- | --- | --- | --- | --- | --- |
| 156 ± 18 | 123 ± 1 | – | – | CCOC(=O)C1CCC2(CC1)OOC1(O2)C2CC3CC(C2)CC1C3 (stereo not drawn) [2o, Ethyl dispiro[cyclohexane-1,3′-[1,2,4]trioxolane-5′,2″-tricyclo[3.3.1.1^3,7]decane]-4-carboxylate] | 381 ± 172 | 1.2 | – | IC50 [4, 6]: 330 ± 48 µM |
| 143 ± 9 | 128 ± 27 | – | – | CCOC(=O)C1CCC2(CC1)OOC1(OO2)C2CC3CC(C2)CC1C3 (stereo not drawn) [2t, Ethyl dispiro[cyclohexane-1,3′-[1,2,4,5]tetraoxane-6′,2″-tricyclo[3.3.1.1^3,7]decane]-4-carboxylate] | 374 ± 119 | 8.4 | – | IC50 [4, 6]: 45 ± 28 µM |
| 219 ± 25 | – | > 400 | – | Nc1ccnn1C(=O)C1CCC2(CC1)OOC1(O2)C2CC3CC(C2)CC1C3 (stereo not drawn) [OZ1, (5-Amino-1H-pyrazol-1-yl)(dispiro[cyclohexane-1,3′-[1,2,4]trioxolane-5′,2″-tricyclo-[3.3.1.1^3,7]-decan]-4-yl)methanone] | 664 ± 163 | – | – | Promastigotes Susceptibility IC50 ± SEM, L. infantum [2]: lack of activity; selectivity (SI values) (THP-1 cell line): < 5; Flagellum size of L. tropica promastigotes (L. tropica promastigotes [5]): 13.561 ± 3.535 µm; Body size of L. tropica promastigotes (L. tropica promastigotes [5]): 5.265 ± 1.733 µm; Morphological alterations of L. tropica promastigotes (L. tropica promastigotes [5]): considerable damage |
| – | 219 ± 44 | – | 161 ± 19 | Nc1ccn(C(=O)C2CCC3(CC2)OOC2(O3)C3CC4CC(C3)CC2C4)n1 (stereo not drawn) [OZ2, (3-Amino-1H-pyrazol-1-yl)(dispiro[cyclohexane-1,3′-[1,2,4]trioxolane-5′,2″-tricyclo[3.3.1.1^3,7]decan]-4-yl)methanone] | – | – | 202 ± 116 | selectivity (SI values) (THP-1 cell line): < 5; Flagellum size of L. tropica promastigotes (L. tropica promastigotes [5]): 12.404 ± 3.745 µm; Body size of L. tropica promastigotes (L. tropica promastigotes [5]): 9.646 ± 2.744 µm; Morphological alterations of L. tropica promastigotes (L. tropica promastigotes [5]): considerable damage |
